This note sets out measurements from patent publication US20240199676A1, “ANTIVIRAL COMPOUNDS AND METHODS OF MAKING AND USING THE SAME” (Gilead Sciences, Inc., priority 2022, published 2024).

Common to all, as to format: cell-based
The subject of assay [1] is Respiratory syncytial virus recombinant with luciferase (RSV-Luc5) in HEp-2 cells. Nature of the assay: HEp-2 RSV-Luc5 384-well Assay (EC50 RSVFLUC Hep2-384 v2, Ex. V). The following applies: human respiratory syncytial virus, HEp-2, 72 h, read-out: EC50 RSV FLuc Hep-2 384 V2 (per Ex. V). From the text: Example V: HEp-2 RSV-Luc5 384-well Assay (EC50 RSVFLUC Hep2-384 v2)
HEp-2 cell line was purchased from ATCC (Manassas, VA Cat #CCL-23) and maintained in Dulbecco's […] (DMEM) (Corning, New York, NY, Cat #15-018CM) supplemented with 10% fetal bovine serum (FBS) (Hyclone, Logan, UT, Cat #SH30071-03) and 1× Penicillin-Streptonycin-L-Glutamine (Corning, New York, NY, Cat #30-009-CI). Cells were passaged 2 times per week to maintain sub-confluent densities and were used for experiments at passage 5-20. Respiratory syncytial virus recombinant with luciferase (RSV-Luc5) (≥1 ×107 TCID50/ml) was purchased from Microbiologics (Saint Cloud, MN). Viral replication was determined in HEp-2 cells in the following manner.
Compounds are prepared in 100% DMSO in 384-well polypropylene plates (Greiner, Monroe, NC, Cat #784201) with 8 compounds per plate in grouped replicates of 4 at 10 serially diluted concentrations (1:3). The serially diluted compounds were transferred to low dead volume Echo plates (Labcyte, Sunnyvale, CA, Cat #LP-0200).
The test compounds were spotted to 384-well assay plates (Greiner, Monroe, NC, Cat#781091) at 200 nL per well. HEp-2 cells were harvested and suspended in DMEM (supplemented with 10% FBS and 1× Penicillin-Streptonycin-L-Glutamine) and seeded to the pre-spotted assay plates at 4,000 cells per well in 30 μL. RSV-Luc5 viruses were diluted in DMEM (supplemented with 10% FBS and 1× Penicillin-Streptomycin-L-Glutamine) at 200,000 Infectious Units (IU) per mL and 10 μL per well was added to the assay plates containing cells and compounds, for an MOI=0.5. The assay plates were incubated for 3 days at 37° C. and 5% CO2. At the end of incubation, One-Glo reagent (Promega, Madison, WI, Cat #E6120) was prepared. The assay plates and One-Glo reagent were equilibrated to room temperature for at least 15 minutes. 40 μL per well of One-Glo reagent was added and the plates were incubated at room temp for 15 minutes before reading the luminescence signal on an EnVision multimode plate reader (Perkin Elmer, Waltham, MA). Remdesivir was used as positive control and DMSO was used as negative control. Values were normalized to the positive and negative controls (as 0% and 100% replication, respectively) and data was fitted using non-linear regression analysis by Gilead's dose response tool. The EC50 value for each compound was then determined as the concentration reducing the viral replication by 50%.

In assay [2] the test system is Human Rhinovirus 14 (HRV14) in H1-HeLa cells. Nature of the assay: H1-HeLa HRV-CTG 384-well Assay (Ex. Y), HRV14. The following applies: Rhinovirus B, 96 h; H1-HeLa cells, HRV14 MOI 1.0, 4 days, Celltiter-Glo; read-out: EC50 H1-HeLa_HRV14_HRV-CTG 384-well Assay (per Ex Y). From the text:
(§1) Example Y: H1-HeLa HRV-CTG 384-well Assay
(§2) H1-Hela cell line (ATCC, Manassas, VA, Cat #CRL-1958) was maintained in Dulbecco's […] (DMEM) (Corning, New York, NY, Cat #15-018CM) supplemented with 10% fetal bovine serum (FBS) (Hyclone, Logan, UT, Cat #SH30071-03), and 1× Penicillin-Streptomycin-L-Glutamine (Corning, New York, NY, Cat #30-009-CI). Cells were passaged 2 times per week to maintain sub-confluent densities and were used for experiments at passage 5-30. The Human Rhinovirus 1B (HRV1B) (ATCC, Manassas, VA, Cat #VR-1645) , Human Rhinovirus 14 (HRV14) (ATCC, Manassas, VA, Cat #VR-284), and Human Rhinovirus 16 (HRV16) (ATCC, Manassas, VA, Cat #BR-283) was obtained through ATCC. Viral infection was monitored by determining viability of H1-HeLa cells as described below.
(§3) Test molecules are prepared in 100% DMSO in 384-well polypropylene plates (Greiner, Monroe, NC, Cat #784201) with 8 compounds per plate in grouped replicates of 4 at 10 serially diluted concentrations (1:3). The serially diluted compounds were transferred to low dead volume Echo plates (Labcyte, Sunnyvale, CA, Cat #LP-0200).
(§4) The test compounds were spotted to 384-well assay plates (Greiner, Monroe, NC, Cat#781091) at 200 nL per well using an Echo acoustic dispenser (Labcyte, Sunnyvale, CA). H1-HeLa cells were harvested and suspended in DMEM (supplemented with 2% FBS and 1× Penicillin-Streptomycin-L-Glutamine) and seeded to the pre-spotted assay plates at 5,000 cells per well in 30 μL. HRV1B, HRV14, and HRV16 was diluted in DMEM (supplemented with 2% FBS and 1× Penicillin-Streptomycin-L-Glutamine) at 97.1 million Infectious Units (IU) per mL, 151 million IU per mL and 221 million IU per mL respectively. 10 μL of virus per well was added to the assay plates containing cells and compounds, for an MOI of 0.5, 1.0, and 0.25 respectively. The assay plates were incubated for 4 days at 37° C. and 5% CO2. At the end of incubation, Celltiter-Glo (Promega, Madison, WI, Cat #(Ga7573) was prepared. The assay plates and Celltiter-Glo reagent were equilibrated to room temperature for at least 15 minutes. 40 μL per well of Celltiter-Glo reagent was added and the plates were incubated at room temperature for 15 minutes before reading the luminescence signal on an EnVision multimode plate reader (Perkin Elmer, Waltham, MA). Rupintrivir was used as positive control and DMSO was used as negative control. Values were normalized to the positive and negative controls (as 0% and 100% replication, respectively) and data was fitted using non-linear regression analysis by Gilead's dose response tool. The EC50 value for each compound was defined as the concentration reducing viral replication by 50%.
(In general: Cellular ATP, detected with luciferase, serves as a proxy for viable cell number.)

In assay [3] the test system is Human Rhinovirus 16 (HRV16) in H1-HeLa cells. Nature of the assay: H1-HeLa HRV-CTG 384-well Assay (Ex. Y), HRV16. The following applies: Rhinovirus A, 96 h; H1-HeLa cells, HRV16 MOI 0.25, 4 days, Celltiter-Glo; read-out: EC50 H1-HeLa_HRV16_HRV-CTG 384-well Assay (per Ex. Y).
Source text: as §1, §2, §3, §4

Assay [4] deals with Human Rhinovirus 1B (HRV1B) in H1-HeLa cells. Nature of the assay: H1-HeLa HRV-CTG 384-well Assay (Ex. Y), HRV1B. The following applies: Rhinovirus A, 96 h; H1-HeLa cells, HRV1B MOI 0.5, 4 days, Celltiter-Glo; read-out: EC50 H1-HeLa_HRV1B_HRV-CTG 384-well Assay (per Ex. Y).
Source text: as §1, §2, §3, §4

As a reminder, the EC50 is the concentration that produces a half-maximal response. On to `CC(C)C(=O)OC[C@@]1(C#N)O[C@@H](c2ccc3c(N)ncnn23)[C@H](O)[C@@H]1O` [Compound 1, ((2R,3S,4R,5S)-5-(4-aminopyrrolo[2,1-f][1,2,4]triazin-7-yl)-2-cyano-3,4-dihydroxytetrahydrofuran-2-yl)methyl isobutyrate], for which the EC50 came to 15 µM in assay [1], 5.13 µM in assay [2], 9.31 µM in assay [3] and 3.05 µM in assay [4].
Regarding `N#C[C@]1(COC(=O)c2ccccc2)O[C@@H](c2ccc3c(N)ncnn23)[C@H](O)[C@@H]1O` [Compound 2, ((2R,3S,4R,5S)-5-(4-aminopyrrolo[2,1-f][1,2,4]triazin-7-yl)-2-cyano-3,4-dihydroxytetrahydrofuran-2-yl)methyl benzoate], the EC50 in assay [1] was determined as 36.8 µM; in assay [2], 23.9 µM; in assay [3], 28.3 µM; in assay [4], 9.6 µM.
The matching figures for `CC(C)CC(=O)OC[C@@]1(C#N)O[C@@H](c2ccc3c(N)ncnn23)[C@H](O)[C@@H]1O` [Compound 3, ((2R,3S,4R,5S)-5-(4-aminopyrrolo[2,1-f][1,2,4]triazin-7-yl)-2-cyano-3,4-dihydroxytetrahydrofuran-2-yl)methyl 3-methylbutanoate]: 26.4 µM, 9.33 µM, 13.2 µM and 8.84 µM.
The matching figures for `CC(=O)OC[C@@]1(C#N)O[C@@H](c2ccc3c(N)ncnn23)[C@H](O)[C@@H]1O` [Compound 4, ((2R,3S,4R,5S)-5-(4-aminopyrrolo[2,1-f][1,2,4]triazin-7-yl)-2-cyano-3,4-dihydroxytetrahydrofuran-2-yl)methyl acetate]: 15.7 µM, 4.61 µM, 10.1 µM and 6.38 µM.
The matching figures for `CCC(=O)OC[C@@]1(C#N)O[C@@H](c2ccc3c(N)ncnn23)[C@H](O)[C@@H]1O` [Compound 5, ((2R,3S,4R,5S)-5-(4-aminopyrrolo[2,1-f][1,2,4]triazin-7-yl)-2-cyano-3,4-dihydroxytetrahydrofuran-2-yl)methyl propionate]: 20 µM, 10.5 µM, 9.84 µM and 8.49 µM.
Take `CCCC(=O)OC[C@@]1(C#N)O[C@@H](c2ccc3c(N)ncnn23)[C@H](O)[C@@H]1O` [Compound 6, ((2R,3S,4R,5S)-5-(4-aminopyrrolo[2,1-f][1,2,4]triazin-7-yl)-2-cyano-3,4-dihydroxytetrahydrofuran-2-yl)methyl butyrate]: the EC50 amounted to 16.8 µM in assay [1], 7.86 µM in assay [2], 8.23 µM in assay [3] and 4.11 µM in assay [4].
The matching figures for `N#C[C@]1(COC(=O)C2CC2)O[C@@H](c2ccc3c(N)ncnn23)[C@H](O)[C@@H]1O` [Compound 7, ((2R,3S,4R,5S)-5-(4-aminopyrrolo[2,1-f][1,2,4]triazin-7-yl)-2-cyano-3,4-dihydroxytetrahydrofuran-2-yl)methyl cyclopropanecarboxylate]: 50 µM, 27.1 µM, 30.7 µM and 11.4 µM.
The matching figures for `N#C[C@]1(COC(=O)C2CCC2)O[C@@H](c2ccc3c(N)ncnn23)[C@H](O)[C@@H]1O` [Compound 8, ((2R,3S,4R,5S)-5-(4-aminopyrrolo[2,1-f][1,2,4]triazin-7-yl)-2-cyano-3,4-dihydroxytetrahydrofuran-2-yl)methyl cyclobutanecarboxylate]: 14.9 µM, 5.66 µM, 7.74 µM and 3.34 µM.
The matching figures for `CCC(CC)C(=O)OC[C@@]1(C#N)O[C@@H](c2ccc3c(N)ncnn23)[C@H](O)[C@@H]1O` [Compound 9, ((2R,3S,4R,5S)-5-(4-aminopyrrolo[2,1-f][1,2,4]triazin-7-yl)-2-cyano-3,4-dihydroxytetrahydrofuran-2-yl)methyl 2-ethylbutanoate]: 28.9 µM, 15.5 µM, 35.1 µM and 21.6 µM.
Regarding `CC(C)(C)C(=O)OC[C@@]1(C#N)O[C@@H](c2ccc3c(N)ncnn23)[C@H](O)[C@@H]1O` [Compound 10, ((2R,3S,4R,5S)-5-(4-aminopyrrolo[2,1-f][1,2,4]triazin-7-yl)-2-cyano-3,4-dihydroxytetrahydrofuran-2-yl)methyl pivalate], the EC50 in assay [1] came out at 21.8 µM; in assay [2] it was 10.9 µM; in assay [3], 14.3 µM; in assay [4] it was 9.77 µM.
Turning to `CCC(CC)C(=O)Nc1ncnn2c([C@@H]3O[C@](C#N)(COC(=O)C(CC)CC)[C@@H](O)[C@H]3O)ccc12` [Compound 11, ((2R,3S,4R,5S)-2-cyano-5-(4-(2-ethylbutanamido)pyrrolo[2,1-f][1,2,4]triazin-7-yl)-3,4-dihydroxytetrahydrofuran-2-yl)methyl 2-ethylbutanoate], the 50% effective concentration (EC50) worked out at 41.5 µM in assay [1], 50 µM in assay [2], 50 µM in assay [3] and 50 µM in assay [4].
For the compound `CC(C)[C@H](N)C(=O)OC[C@@]1(C#N)O[C@@H](c2ccc3c(N)ncnn23)[C@H](O)[C@@H]1O` [Compound 12, ((2R,3S,4R,5S)-5-(4-aminopyrrolo[2,1-f][1,2,4]triazin-7-yl)-2-cyano-3,4-dihydroxytetrahydrofuran-2-yl)methyl L-valinate], the EC50 in assay [1] was 19.2 µM; in assay [2], 6 µM; in assay [3], 8.82 µM; in assay [4], 6.5 µM.
